Measurements taken from patent publication US20250345316A1, “METHODS OF INCREASING LYMPHOCYTE TRAFFICKING TO THE COLON BY STIMULATING RETINOIC ACID RECEPTORS AND ARYL HYDROCARBON RECEPTORS” (President and Fellows of Harvard College, priority 2024, published 2025).

Assays:
[1] = test system: OT-1 cells (antigen-specific CD8+ T cells); experiment: OT-1 in vivo assay (parenteral immunization): OT-1 cells in tissues by flow cytometry; design: species or system mice; conditions: for OT-1 effector cells in the colon and cecum: B6 mice, OVA+CpG s.c. day 0, Am80 500 nmol, 10-CL-BBQ 164 nmol s.c. day 0, 1, 2; for OT-1 effector cells in the colon and cecum / OT-1 cells in the small intestine: day 7; for OT-1 cells in the small intestine: same regimen; for CD8+ T cell trafficking to the small intestine / tissue residence: supplementation
Method: OT-1 in vivo Assay (Parenteral Immunization): Mice were adoptively transferred with OT-1 cells, and subsequently immunized with […] chicken ovalbumin (OVA) and an adjuvant CpG-1668 (0.5 nmol). On day 0.1 and 2, mice were injected s.c. with solvent control (DMSO, 10% v/v in PEG-400), retinoic acid receptor agonist Am80 (500 nmol in PEG-400), AHR agonist 10-CL-BBQ (164 nmol in PEG-400), or Am80+10-CL-BBQ (same dose). At timepoints defined by individual experiments, tissues were harvested and analyzed.
Preparing intestinal samples for flow cytometry: Small intestine (duodenum to ileum) was dissected out and flushed. Peyer's patches and fat were removed, and the tissue was cut into 4-5 pieces, and flipped to expose the luminal surface. Colon and cecum were dissected out, flushed and cut open longitudinally.
(§1) Cell Count and Flow Cytometry and Cell Count: For cell counting, samples were diluted and counted on a BD Accuri C6 Plus cytometer. For flow cytometry, samples were run on a Beckman CytoFLEX cytometer, and analysis was done using Flow Jo software V10.
The experimental approach is shown in the schematic in FIG. 2. Antigen-specific CD8+ T cells (OT-1 cells, recognizing a peptide within the chicken ovalbumin protein) were adoptively transferred (1×10^5 cells) to B6 recipient mice on day −1, and B6 recipients were vaccinated subcutaneously (s.c.) on day 0 with 100 μg chicken ovalbumin (OVA) and an adjuvant CpG-1668 (0.5 nmol). On day 0.1 and 2, mice were injected subcutaneously with solvent control (DMSO, 10% v/v in PEG-400), retinoic acid receptor agonist Am80 (500 nmol in PEG-400), AHR agonist 10-CL-BBQ (164 nmol in PEG-400), or Am80+10-CL-BBQ (same dose). Tissues were harvest on day 7 and analyzed by flow cytometry.

[2] = test system: α4β7, GPR15 and CCR9 on OT-1 cells; experiment: OT-1 in vivo assay: expression of gut homing molecules on OT-1 cells in blood and draining lymph nodes; design: species or system mice; conditions: for GPR15 on OT-1 cells (effector CD8+ T cells): day 4 blood, L-KYN 500 nmol in PEG-400; for α4β7 and CCR9 expression: subcutaneous vaccination model, supplementation
Method: At timepoints defined by individual experiments, tissues were harvested and analyzed.
as §1
The experimental approach is shown in the schematic in FIG. 2. […] Tissues were harvest on day 7 and analyzed by flow cytometry.

[3] = test system: OT-1 cells; experiment: Short-term competitive homing of OT-1 cells; type: in vivo, mice; conditions: 5×10^6 cells from each treatment transferred into naïve B6 recipients; without Am80
Method: Short-term Competitive Homing: OT-1 cells, either in vitro or in vivo generated, were distinguished by congenic markers CD45.1/CD45.2, mixed at around 1:1 ratio and adoptively transferred into recipient animals. At 20-24 hours post transfer, mice were sacrificed, and tissues were harvested for analysis. Ratio of transferred cells were obtained, and homing index was calculated.
Briefly, two GFP+OT-1 transgenic mice with or without expression of the congenic marker CD45.1 were used per experiment (mouse A and mouse B), and OT-1 cells were isolated from their spleens. OT-1 cells from different mice ([A] and [B]) were subjected to different treatments (A and B, including culture, genetic manipulation, in vivo activation and re-harvesting, etc). The cells were then mixed at an around 1:1 ratio and injected into a B6 recipient (GFP−). At timepoints (determined for each experiment), with or without additional in vivo treatments (determined by each experiment), tissues were analyzed by flow cytometry and the ratio of [A] and [B] in each tissue was obtained. Homing index and normalized homing index (see equation) were calculated.
As a supplementation to in vitro approaches, the gut homing capacity of in vivo generated effector T cells was tested in the disclosed vaccination strategy. […]

[4] = test system: AHR; experiment: CRISPR knockout of AHR in OT-1 cells, co-transfer with control cells; type: in vivo, mouse
Source text: CRISPR Knockout of AHR and GPR15: Naïve GFP+OT-1 cells were isolated with mouse CD8a+ T Cell Isolation Kit (Miltenyi) and nucleofected with Cas9 protein, complexed with either control (CD19) gRNA, or GPR15 gRNA. gRNAs were designed using Synthego online tool and synthesized by Synthego. The procedure was done using a Lonza nucleofector, with the P3 Primary cell Kit. Cells were distinguished based on expression of congenic marker CD45.1 and co-transferred into recipient mice. Recipient mice were immunized, and tissues were analyzed at different timepoints.
Loss of AHR abrogated ligand-depended upregulation of GPR15. Naïve GFP+OT-1 cells were nucleofected with Cas9 protein, complexed with either control (CD19) gRNA, or AHR gRNA. Transfected cells were distinguished based on expression of congenic marker CD45.1 and co-transferred into recipient mice. Recipient mice were immunized with OVA+CpG, and injected with DMSO, Am80, 10-CL-BBQ or Am80+10-CL-BBQ (same dose and regimen as previously described). Flow cytometry plots, gated on OT-1 cells. […] Quantification is shown of GPR15+, α4β7+ and CCR9+ cells, percentage out of OT-1 cells in respective groups (FIGS. 21B-21D). […] Control cells used were CD45.1^− and […] cells were CD45.1+.

[5] = test system: OT-1 CD8+ T cells; experiment: OT-1 in vitro culture to generate GPR15+CD8+ T cells; type: cell-based, mouse; conditions: day 4 post activation
Method: OT-1 in vitro Culture: OT-1 splenocytes were pulsed for 1 hour with 1 μg OVA peptide (257-264) and cultured overnight in complete T cell (RPMI) media. The next day, CD8+ T cells were isolated using mouse CD8a+ T Cell Isolation Kit (Miltenyi) and cultured with various treatment conditions.
Various treatment conditions were tested for the efficiency of generating GPR15^+CD8^+ T cells. OT-1 splenocytes were pulsed for 1 hour with 1 μg OVA peptide (257-264) and cultured overnight in complete RPMI media. The next day, CD8^+ T cells were isolated using mouse CD8a^+ T Cell Isolation Kit (Miltenyi) and cultured with various treatment conditions. […] 4 days post activation. Plots were pre-gated on CD8a^+ cells. […] GPR15^+ T cells peaked around 4-5 days post activation. Cells were treated with IL-2+10-CL-BBQ+TGF-β1.

[6] = test system: OT-1 cells (antigen-specific CD8+ T cells); experiment: OT-1 in vivo assay (parenteral immunization): OT-1 cells in tissues by flow cytometry; design: species or system mice
[7] = 10 nM ATRA added concurrently with IL-2+TGF-β1+10-CL-BBQ

SMILES: O=c1c2cccc3cccc(c32)c2nc3ccc(Cl)cc3n12 [10-CL-BBQ, 10-Chloro-7H-benzimidazo[2,1-a]benzl[de]isoquinolin-7-one]
- OT-1 effector cells in the colon and cecum [1]: some increase
- OT-1 cells in the small intestine [1]: no effect
- GPR15 expression on OT-1 cells in the blood ([2]; blood, day 4-6): most robust
- GPR15 expression on CD8a+ cells of the recipient (mostly naïve) ([2]; blood, day 5): did not affect
- GPR15 on adoptively transferred OT-1 cells (effector phase) ([2]; blood, day 5): up-regulated
- GPR15 on OT-1 cells (effector CD8+ T cells) [2]: significantly up-regulated
- trafficking of in vitro cultured cells to small and large intestine [3]: did not constitute trafficking
- GPR15 on OT-1 cells nucleofected with AHR gRNA ([4]; day 5 blood, compared to control gRNA cells): not 10-CL-BBQ dependent upregulation
- representation of AHR KO cells in the colon and cecum (ratio [Ctrl] to [AHR knockout], normalized to spleen) ([4]; day 7 post immunization): under-represented

SMILES: CC1=C(/C=C/C(C)=C/C=C/C(C)=C/C(=O)O)C(C)(C)CCC1 [ATRA, 3,7-Dimethyl-9-(2,6,6-trimethyl-1-cyclohexen-1-yl)-2E,4E,6E,8E,-nonatetraenoic acid]
- CD8+ T cell trafficking to the small intestine ([1]; subcutaneous vaccination model): increased
- tissue residence ([1]; subcutaneous vaccination model): promoted
- α4β7 and CCR9 expression [2]: increased
- α4β7^high GPR15+ population ([5]; 10 nM ATRA added 24-48 hours after IL-2+TGF-β1+10-CL-BBQ): enabled the generation of an α4β7^high GPR15+ population
- GPR15 expression [5, 7]: completely abrogated
- trafficking phenotype (α4β7, CCR9) [5, 7]: skewed cells towards a small intestine trafficking phenotype

SMILES: CC1(C)CCC(C)(C)c2cc(NC(=O)c3ccc(C(=O)O)cc3)ccc21 [Am80, 4-[[(5,6,7,8-Tetrahydro-5,5,8,8-tetramethyl-2-naphthalenyl)amino]carbonyl]benzoic acid]
- OT-1 effector cells in the colon and cecum [1]: some increase
- OT-1 cells in the small intestine [1]: increased
- optimal trafficking to the large intestine ([1]; subcutaneous vaccination model): not sufficient
- CD8+ T cell trafficking to the small intestine ([1]; subcutaneous vaccination model): increased
- tissue residence ([1]; subcutaneous vaccination model): promoted
- α4β7 and CCR9 expression [2]: increased

SMILES: Cc1ccccc1N=Nc1ccc(NC(=O)c2ccnn2C)c(C)c1 [CH-223191]
- effects of 10-CL-BBQ on colon trafficking ([6]; 250 nmol in PEG-400, given with 10-CL-BBQ): antagonized

SMILES: Nc1ccccc1C(=O)C[C@H](N)C(=O)O [L-KYN, L-kynurenine]
- colon trafficking (OT-1 cells out of total CD8+ T cells) ([1]; alone): did not increase
- colon trafficking (OT-1 cells out of total CD8+ T cells) ([1]; in combination with Am80): did not increase
- GPR15 on OT-1 cells (effector CD8+ T cells) [2]: did not increase

SMILES: FC(F)(F)c1ccc(Nc2nccc(-c3cccc(Cl)c3)n2)cc1 [VAF347]
- colon trafficking (OT-1 cells out of total CD8+ T cells) ([6]; 250 nmol in PEG-400): increased colon trafficking but at a lower efficacy than 10-CL-BBQ
